Source: US12473301B2, “Isoquinoline compounds for the treatment of cancer” (Genentech, Inc., priority 2018, dated 2025)

Target: HPK1 (Homo sapiens (Human), UniProt Q92918, S171E/T165E)
Assay: HPK1-FL HTRF Enzymatic Assay ("HTRF")
Format: biochemical
Conditions: HPK full length, ATP 1 mM
Method: HPK1-FL HTRF Enzymatic Assay (“HTRF”)
HPK-FL enzyme phosphorylates Biotin-SLP-76 substrate in the presence of ATP at 1 mM and varying concentrations of test compound. Product is detected by FRET using Eu-anti-pSLP76 Ab and SA-XL665. Also see www.cisbio.com/HTRF for additional HTRF technology information.
Instrumentation: Echo555 compound dispenser; Agilent Bravo; Perkin Elmer Envision.
To a 384 well Proxiplate with 80 nL compound or DMSO spotted on was added 4 μl/well kinase mix. The mixture was preincubated for 30 minutes and then 4 μl/well substrate mix was added. The solution was incubated for 60 min and then 4 μl/well detection mix was added. The solution was incubated for another 60 min. The plates were then loaded onto a
Perkin Elmer Envision and the TR-FRET signal was measured at […] and 665 nm. A ratio of 665/620 was used to calculate the % activity at each concentration of compound.

Chain of HPK1 (Q92918 whole entry T165E/S171E): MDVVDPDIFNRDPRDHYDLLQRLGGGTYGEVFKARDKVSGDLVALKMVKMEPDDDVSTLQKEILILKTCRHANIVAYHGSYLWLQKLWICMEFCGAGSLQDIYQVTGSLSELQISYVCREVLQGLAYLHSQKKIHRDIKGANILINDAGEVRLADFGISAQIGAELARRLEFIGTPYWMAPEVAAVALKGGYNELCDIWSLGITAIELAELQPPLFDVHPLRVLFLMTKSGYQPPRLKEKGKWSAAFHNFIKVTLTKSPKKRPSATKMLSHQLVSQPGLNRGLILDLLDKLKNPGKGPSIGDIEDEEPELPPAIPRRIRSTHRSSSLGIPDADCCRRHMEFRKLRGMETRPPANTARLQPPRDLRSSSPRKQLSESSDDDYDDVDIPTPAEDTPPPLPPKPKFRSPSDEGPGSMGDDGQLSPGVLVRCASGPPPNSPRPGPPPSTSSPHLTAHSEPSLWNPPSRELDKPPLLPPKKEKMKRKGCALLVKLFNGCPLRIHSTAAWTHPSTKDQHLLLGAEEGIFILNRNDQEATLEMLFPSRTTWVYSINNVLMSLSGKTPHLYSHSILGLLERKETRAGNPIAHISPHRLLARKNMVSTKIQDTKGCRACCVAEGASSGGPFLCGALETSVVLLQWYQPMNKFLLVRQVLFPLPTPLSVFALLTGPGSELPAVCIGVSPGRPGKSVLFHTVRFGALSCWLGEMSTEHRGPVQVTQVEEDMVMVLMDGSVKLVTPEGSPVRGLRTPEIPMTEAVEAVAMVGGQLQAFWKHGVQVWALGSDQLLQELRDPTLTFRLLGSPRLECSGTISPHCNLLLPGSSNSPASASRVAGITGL

Compound	Ki
Cc1c(-c2cc3cc(NC(=O)O[C@H]4CCC[C@@H]4C#N)ncc3c(Cl)c2F)cnc2c1NCCO2 (single isomer, unassigned) [Compound 127b]	3.75 nM
Cc1c(-c2cc3cc(NC(=O)OCC4(F)CCNC4)ncc3cc2F)cnc2c1NCCO2 (racemic) [Compound 106, (3-Fluoropyrrolidin-3-yl)methyl (7-fluoro-6-(8-methyl-2,3-dihydro-1H-pyrido[2,3-b][1,4]oxazin-7-yl)isoquinolin-3-yl)carbamate]	2.4 nM
Cc1c(N)cncc1-c1cc2cc(NC(=O)OCC3CC3)ncc2cc1F [Compound 102, Cyclopropylmethyl (6-(5-amino-4-methylpyridin-3-yl)-7-fluoroisoquinolin-3-yl)carbamate]	45 nM
Cc1c(-c2cc3cc(NC(=O)NC4CNC4)ncc3cc2F)cnc2c1NCCO2 [Compound 205, 1-(Azetidin-3-yl)-3-(7-fluoro-6-(8-methyl-2,3-dihydro-1H-pyrido[2,3-b][1,4]oxazin-7-yl)isoquinolin-3-yl)urea]	0.76 nM
CC[C@@H]1[C@@H](C(=O)Nc2cc3cc(-c4cnc5c(c4C)NCCO5)c(F)cc3cn2)[C@@H]1c1cnn(C)c1 (single isomer, unassigned) [Compound 301a]	0.9 nM
CNC(=O)N1CC(OC(=O)Nc2cc3cc(-c4cnc5c(c4C)NCCO5)c(F)cc3cn2)C1 [Compound 105, 1-(Methylcarbamoyl)azetidin-3-yl (7-fluoro-6-(8-methyl-2,3-dihydro-1H-pyrido[2,3-b][1,4]oxazin-7-yl)isoquinolin-3-yl)carbamate]	0.91 nM
Cc1c(-c2cc3cc(NC(=O)O[C@H]4CCC[C@@H]4C#N)ncc3cc2F)cnc2c1NCCO2 (single isomer, unassigned) [Compound 128b]	0.78 nM
Cc1c(-c2cc3cc(NC(=O)OCC(C)(C)C)ncc3cc2F)cnc2c1NCCO2 [Compound 120, Neopentyl (7-fluoro-6-(8-methyl-2,3-dihydro-1H-pyrido[2,3-b][1,4]oxazin-7-yl)isoquinolin-3-yl)carbamate]	4.3 nM
Cc1c(-c2cc3cc(NC(=O)OCC4CCCCO4)ncc3cc2F)cnc2c1NCCO2 (racemic) [Compound 116, (Tetrahydro-2H-pyran-2-yl)methyl (7-fluoro-6-(8-methyl-2,3-dihydro-1H-pyrido[2,3-b][1,4]oxazin-7-yl)isoquinolin-3-yl)carbamate]	7.5 nM
CC(=O)N1CC(OC(=O)Nc2cc3cc(-c4cnc5c(c4C)NCCO5)c(F)cc3cn2)C1 [Compound 104, 1-Acetylazetidin-3-yl (7-fluoro-6-(8-methyl-2,3-dihydro-1H-pyrido[2,3-b][1,4]oxazin-7-yl)isoquinolin-3-yl)carbamate]	2.9 nM
CC[C@H]1[C@H](C(=O)Nc2cc3cc(-c4c[n+]([O-])ccc4C)c(F)cc3cn2)[C@H]1c1cnn(C)c1 [Compound 302b, 3-(3-((1S,2R,3S)-2-Ethyl-3-(1-methyl-1H-pyrazol-4-yl)cyclopropane-1-carboxamido)-7-fluoroisoquinolin-6-yl)-4-methylpyridine 1-oxide]	2000 nM
Cc1c(-c2cc3cc(NC(=O)O[C@H]4[C@@H]5CNC[C@@H]54)ncc3cc2F)cnc2c1NCCO2 [Compound 129a, (1R,5S,6s)-3-Azabicyclo[3.1.0]hexan-6-yl (7-fluoro-6-(8-methyl-2,3-dihydro-1H-pyrido[2,3-b][1,4]oxazin-7-yl)isoquinolin-3-yl)carbamate]	0.58 nM
Cc1c(-c2cc3cc(NC(=O)OCCN)ncc3cc2F)cnc2c1NCCO2 [Compound 112, 2-Aminoethyl (7-fluoro-6-(8-methyl-2,3-dihydro-1H-pyrido[2,3-b][1,4]oxazin-7-yl)isoquinolin-3-yl)carbamate]	32 nM
Cc1c(-c2cc3cc(NC(=O)NCC4CC4)ncc3cc2F)cnc2c1NCCO2 [Compound 202, 1-(Cyclopropylmethyl)-3-(7-fluoro-6-(8-methyl-2,3-dihydro-1H-pyrido[2,3-b][1,4]oxazin-7-yl)isoquinolin-3-yl)urea]	0.5 nM
Cc1c(-c2cc3cc(NC(=O)OC4CC5(CNC5)C4)ncc3cc2F)cnc2c1NCCO2 [Compound 125, 2-Azaspiro[3.3]heptan-6-yl (7-fluoro-6-(8-methyl-2,3-dihydro-1H-pyrido[2,3-b][1,4]oxazin-7-yl)isoquinolin-3-yl)carbamate]	0.34 nM
Cc1c(-c2cc3cc(NC(=O)OC4CS(=O)(=O)C4)ncc3cc2F)cnc2c1NCCO2 [Compound 130, 1,1-Dioxidothientan-3-yl (7-fluoro-6-(8-methyl-2,3-dihydro-1H-pyrido[2,3-b][1,4]oxazin-7-yl)isoquinolin-3-yl)carbamate]	4.1 nM
Cc1c(-c2cc3cc(NC(=O)OCC4CC4)ncc3cc2F)cnc2c1NCCO2 [Compound 101, Cyclopropylmethyl (7-fluoro-6-(8-methyl-2,3-dihydro-1H-pyrido[2,3-b][1,4]oxazin-7-yl)isoquinolin-3-yl)carbamate]	2.7 nM
Cc1c(-c2cc3cc(NC(=O)OC4CC5CC4CN5)ncc3cc2F)cnc2c1NCCO2 (stereo not shown) [Compound 121, 2-Azabicyclo[2.2.1]heptan-5-yl (7-fluoro-6-(8-methyl-2,3-dihydro-1H-pyrido[2,3-b][1,4]oxazin-7-yl)isoquinolin-3-yl)carbamate]	8.7 nM

More lines, in order of falling Ki, values ahead:

Ki	Compound
205 nM	Cc1c(-c2cc3cc(NC(=O)OCC(F)(F)F)ncc3cc2F)cnc2c1NCCO2 [Compound 118, 2,2,2-Trifluoroethyl (7-fluoro-6-(8-methyl-2,3-dihydro-1H-pyrido[2,3-b][1,4]oxazin-7-yl)isoquinolin-3-yl)carbamate]
25 nM	Cc1c(-c2cc3cc(NC(=O)OC[C@H]4CCCN4)ncc3cc2F)cnc2c1NCCO2 [Compound 109a, (R)-Pyrrolidin-2-ylmethyl (7-fluoro-6-(8-methyl-2,3-dihydro-1H-pyrido[2,3-b][1,4]oxazin-7-yl)isoquinolin-3-yl)carbamate]
9.5 nM	Cc1c(-c2cc3cc(NC(=O)OCCc4ccccn4)ncc3cc2F)cnc2c1NCCO2 [Compound 119, 2-(Pyridin-2-yl)ethyl (7-fluoro-6-(8-methyl-2,3-dihydro-1H-pyrido[2,3-b][1,4]oxazin-7-yl)isoquinolin-3-yl)carbamate]
8 nM	CC[C@H]1[C@H](C(=O)Nc2cc3cc(-c4cnc5c(c4C)NCCO5)c(F)cc3cn2)[C@H]1c1cnn(C)c1 (single isomer, unassigned) [Compound 301b]
7.5 nM	Cc1c(-c2cc3cc(NC(=O)OC4CCC45CCNC5)ncc3cc2F)cnc2c1NCCO2 (racemic) [Compound 123, 6-Azaspiro[3.4]octan-1-yl (7-fluoro-6-(8-methyl-2,3-dihydro-1H-pyrido[2,3-b][1,4]oxazin-7-yl)isoquinolin-3-yl)carbamate]
5 nM	Cc1c(-c2cc3cc(NC(=O)OC4CCOCC4)ncc3cc2F)cnc2c1NCCO2 [Compound 103, Tetrahydro-2H-pyran-4-yl (7-fluoro-6-(8-methyl-2,3-dihydro-1H-pyrido[2,3-b][1,4]oxazin-7-yl)isoquinolin-3-yl)carbamate]
4 nM	Cc1c(-c2cc3cc(NC(=O)OC4COC5(CCNC5)C4)ncc3cc2F)cnc2c1NCCO2 (racemic) [Compound 108, 1-Oxa-7-azaspiro[4.4]nonan-3-yl (7-fluoro-6-(8-methyl-2,3-dihydro-1H-pyrido[2,3-b][1,4]oxazin-7-yl)isoquinolin-3-yl)carbamate]
4 nM	Cc1c(-c2cc3cc(NC(=O)OCC4(F)CCNCC4)ncc3cc2F)cnc2c1NCCO2 [Compound 111, (4-Fluoropiperidin-4-yl)methyl (7-fluoro-6-(8-methyl-2,3-dihydro-1H-pyrido[2,3-b][1,4]oxazin-7-yl)isoquinolin-3-yl)carbamate]
1.8 nM	CC[C@H]1[C@@H](C(=O)Nc2cc3cc(-c4cnc5c(c4C)NCCO5)c(F)cc3cn2)[C@@H]1c1cnn(C)c1 (single isomer, unassigned) [Compound 301d]
1.5 nM	COC(C)CCOC(=O)Nc1cc2cc(-c3cnc4c(c3C)NCCO4)c(F)cc2cn1 (racemic) [Compound 114, 3-Methoxybutyl (7-fluoro-6-(8-methyl-2,3-dihydro-1H-pyrido[2,3-b][1,4]oxazin-7-yl)isoquinolin-3-yl)carbamate]
1.07 nM	Cc1c(-c2cc3cc(NC(=O)OC4CC5(CCN(C)CC5)C4)ncc3cc2F)cnc2c1NCCC2 [Compound 133, 7-Methyl-7-azaspiro[3.5]nonan-2-yl (7-fluoro-6-(4-methyl-5,6,7,8-tetrahydro-1,5-naphthyridin-3-yl)isoquinolin-3-yl)carbamate]
0.95 nM	Cc1c(-c2cc3cc(NC(=O)NC(C)c4cnn(C)c4)ncc3cc2F)cnc2c1NCCO2 (single isomer, unassigned) [Compound 201a]
0.945 nM	Cc1c(-c2cc3cc(NC(=O)O[C@@H]4CCCC[C@H]4C#N)ncc3c(Cl)c2F)cnc2c1NCCO2 (single isomer, unassigned) [Compound 126b]
0.88 nM	Cc1c(-c2cc3cc(NC(=O)NC4CCOC4)ncc3cc2F)cnc2c1NCCO2 (single isomer, unassigned) [Compound 206a]
0.83 nM	Cc1c(-c2cc3cc(NC(=O)NC4CCOCC4)ncc3cc2F)cnc2c1NCCO2 [Compound 204, 1-(7-Fluoro-6-(8-methyl-2,3-dihydro-1H-pyrido[2,3-b][1,4]oxazin-7-yl)isoquinolin-3-yl)-3-(tetrahydro-2H-pyran-4-yl)urea]
0.2 nM	Cc1c(-c2cc3cc(NC(=O)NC4CC4)ncc3cc2F)cnc2c1NCCO2 [Compound 207, 1-Cyclopropyl-3-(7-fluoro-6-(8-methyl-2,3-dihydro-1H-pyrido[2,3-b][1,4]oxazin-7-yl)isoquinolin-3-yl)urea]
